Laboratory results taken from US20080293931A1, “Methods and compositions for the removal of nucleic acid amplification inhibitors” (priority 2006, published 2008).
“Also recorded” adds a separate entry of the source. Read-outs that look alike come from different tables or passages of the source.

Experiments:
[1] = Humic acid (HA) removal from aqueous commercial HA solutions by PIR compounds, fluorimetric HA determination; design: key to ε values: ε = −log(1 − efficiency); efficiency = ([HA]i − [HA]f)/[HA]i; settings: for Average Efficiency, ε / Avg Reduction Factor: PIR 1 M, aqueous humic samples seeded with E. coli DNA, HAi avg 6,500-12,300 depending on compound (Table 6 c2); for performance as PIR compound (in words): commercial humic acid solutions
Protocol: Humic solutions were in 1×TAE buffer at RT with pH˜7. […] Samples from PIR experiments utilizing these materials were diluted, using 1×TAE, to concentrations falling within the linear response region representative of the humic material used.
In this study, when samples were interrogated for humic acid concentrations via fluorimetry, known concentrations of commercial humic acids were compared to known concentrations of humic standards.
FIG. 1 compares the HA removal from samples containing DNA of interest to the molar concentration of varied PIR compounds by plotting an HA reduction factor as the initial [HA] divided by [HA] following treatment with PIR compounds. The commercially available PIR kit, from Mo-BIO, is placed on FIG. 1 for comparison and was arbitrarily assigned a molar concentration of 1 for convenience. […] The data shown in FIG. 1 were generated from varied initial [HA], ranging from ˜5,000 to 300,000 mg/L HA. These varied initial [HA] values represent a “worst case” scenario and these are in comparison to initial [HA] in extractions from problematic soils generating humic acid concentrations typically less than 5,000 mg/L.
FIG. 2 plots the data from the same experiments represented in FIG. 1, but applying a different approach for data metric. FIG. 2 plots a dimensionless HA removal efficiency (or efficacy) value versus the decade of dilution necessary for successful PCR. The efficiency of HA removal is defined in equation 1 as the initial [HA] minus the final [HA] divided by the initial [HA]. This is essentially a percent removal approach.
Efficiency=[HA]i−[HA]f/[HA]; (1)
To further discriminate efficiency values greater than 0.99, the efficiency was subtracted from the integer value of 1, and the −log was taken of 1-efficiency to generate a non-negative value indicative of HA removal efficiency with greater level of discrimination and resolution of values with high degrees of HA removal. This is described by equation 2.

E. coli DNA = test: PCR of seeded E. coli DNA after PIR treatment of aqueous HA samples (decade of dilution necessary for successful PCR); settings: for Typical dilution decade for PCR / range of dilutions (dilution decade for PCR): PIR 1 M, aqueous humic samples seeded with E. coli DNA, HAi avg 6,500-12,300 depending on compound (Table 6 c2); for PCR products imaged after gel electrophoresis (band intensity): aqueous HA samples seeded with E. coli DNA
Protocol: Consideration of dilution factors for successful PCR must also be reviewed. In untreated soil extracts containing DNA of interest, successful PCR of the extracted DNA may occur when the polymerase inhibitor is diluted sufficiently such that inhibition is suppressed and PCR may occur. Typical values for the dilution decade at which PCR is successful in samples containing humic materials and DNA of interest are often around decade four (1×10^4). Accordingly, a dilution factor of 10,000 would be necessary for successful PCR in a typical soil extract/sample. This magnitude of dilution may also impact PCR sensitivity for DNA/species already present at low concentrations and result in not identifying an organism that was present in the original sample extract.
Using this approach for presenting the HA removal data allows for the determination of a PIR compound's effectiveness for HA removal (ε) and compatibility for application in PCR systems via dilution data for PCR.

[2] = Solubility of PIR compounds in aqueous solution; format: physicochemical; settings: aqueous solution
seeded E. coli DNA = test: PCR after PIR treatment of soil extracts (dilution to achieve PCR)
[3] = 0.1M DTPB in phosphate buffer, 30 days storage, 4 C., dark, HA avg 50,300 mg/L
[4] = 0.1M DTPB in phosphate buffer, 30 days storage, 25 C., dark, HA avg 50,300 mg/L
[5] = 0.1M DTPB in phosphate buffer, 30 days storage, 25 C., light, HA avg 50,300 mg/L
[6] = 0.1M DTPB in phosphate buffer, 30 days storage, −20 C., dark, HA avg 50,300 mg/L
[7] = 1.0M DTPB in phosphate buffer, 30 days storage, 4 C., dark, HA avg 50,300 mg/L
[8] = 1.0M DTPB in phosphate buffer, 30 days storage, 25 C., dark, HA avg 50,300 mg/L
[9] = 1.0M DTPB in phosphate buffer, 30 days storage, 25 C., light, HA avg 50,300 mg/L
[10] = 1.0M DTPB in phosphate buffer, 30 days storage, −20 C., dark, HA avg 50,300 mg/L
[11] = 2M DTPB in phosphate buffer, 30 days storage, 4 C., dark, HA avg 50,300 mg/L
[12] = 2M DTPB in phosphate buffer, 30 days storage, 25 C., dark, HA avg 50,300 mg/L
[13] = 2M DTPB in phosphate buffer, 30 days storage, 25 C., light, HA avg 50,300 mg/L
[14] = 2M DTPB in phosphate buffer, 30 days storage, −20 C., dark, HA avg 50,300 mg/L
[15] = 1M BRT in phosphate buffer, 19 days storage, 4 C., dark, HA avg 10,200 mg/L
[16] = 1M BRT in phosphate buffer, 19 days storage, 25 C., dark, HA avg 10,200 mg/L
[17] = 1M BRT in phosphate buffer, 19 days storage, 25 C., light, HA avg 10,200 mg/L
[18] = 1M BRT in phosphate buffer, 19 days storage, −20 C., dark, HA avg 10,200 mg/L

Compound: O=C(C[n+]1ccsc1)C[n+]1ccsc1 [DTPB, 1,3-Dithiazole-2-Propanone Dibromide]
- HA reduction factor [1, 3]: 5
- ε values [1, 3]: 0.70
- HA reduction factor [1, 4]: 6
- ε values [1, 4]: 0.76
- HA reduction factor [1, 5]: 6
- ε values [1, 5]: 0.75
- HA reduction factor [1, 6]: 7
- ε values [1, 6]: 0.87
- HA reduction factor [1, 7]: 143
- ε values [1, 7]: 2.16
- HA reduction factor [1, 8]: 160
- ε values [1, 8]: 2.20
- HA reduction factor [1, 9]: 194
- ε values [1, 9]: 2.29
- HA reduction factor [1, 10]: 114
- ε values [1, 10]: 2.06
- HA reduction factor [1, 11]: 64
- ε values [1, 11]: 1.81
- HA reduction factor [1, 12]: 99
- ε values [1, 12]: 1.99
- HA reduction factor [1, 13]: 107
- ε values [1, 13]: 2.03
- HA reduction factor [1, 14]: 50
- ε values [1, 14]: 1.70
- Average Efficiency, ε [1]: 2.18
- Avg Reduction Factor [1]: 153
- performance as PIR compound (in words) [1]: poor performance
- Decade of dilution (E. coli DNA; [3]): 2
- Decade of dilution (E. coli DNA; [4]): 2
- Decade of dilution (E. coli DNA; [5]): 2
- Decade of dilution (E. coli DNA; [6]): 2
- Decade of dilution (E. coli DNA; [7]): 1
- Decade of dilution (E. coli DNA; [8]): 1
- Decade of dilution (E. coli DNA; [9]): 1
- Decade of dilution (E. coli DNA; [10]): 1
- Decade of dilution (E. coli DNA; [11]): 1
- Decade of dilution (E. coli DNA; [12]): 1
- Decade of dilution (E. coli DNA; [13]): 1
- Decade of dilution (E. coli DNA; [14]): 1
- Typical dilution decade for PCR (E. coli DNA): 2
- range of dilutions (dilution decade for PCR) (E. coli DNA): 1-2

Compound: O=C(C[n+]1ccsc1)c1ccccc1 [PTB, Phenacyl Thiazolium Bromide, reference compound]
- solubility ([2]; aqueous solutions, read-out: solubility in aqueous solutions (molar solubility)): < 1000 mM
- solubility ([2]; starred values of column PIR, M (footnote of Table 6), read-out: maximum molar solubility): 1000 mM

Compound: Cc1ncc(CO)c(CN)c1O [PDA, Pyridoxamine]
- Decade of dilution (E. coli DNA; 1M PDA in phosphate buffer, 30 days storage, 4 C., dark, HA avg ~10,000 mg/L): 0
- Decade of dilution (E. coli DNA; 1M PDA in phosphate buffer, 30 days storage, 25 C., dark, HA avg ~10,000 mg/L): 0
- Decade of dilution (E. coli DNA; 1M PDA in phosphate buffer, 30 days storage, 25 C., light, HA avg ~10,000 mg/L): 0
- Decade of dilution (E. coli DNA; 1M PDA in phosphate buffer, 30 days storage, −20 C., dark, HA avg ~10,000 mg/L): 0
- Decade of dilution (E. coli DNA; 2.9M PDA in phosphate buffer, 30 days storage, 4 C., dark, HA avg ~10,000 mg/L): 0
- Decade of dilution (E. coli DNA; 2.9M PDA in phosphate buffer, 30 days storage, 25 C., dark, HA avg ~10,000 mg/L): 1
- Decade of dilution (E. coli DNA; 2.9M PDA in phosphate buffer, 30 days storage, 25 C., light, HA avg ~10,000 mg/L): 1
- Decade of dilution (E. coli DNA; 2.9M PDA in phosphate buffer, 30 days storage, −20 C., dark, HA avg ~10,000 mg/L): 0
- Decade of dilution (E. coli DNA; 2.9M PDA solutions freshly prepared (Day 0)): 0
- Typical dilution decade for PCR (E. coli DNA): 1
- range of dilutions (dilution decade for PCR) (E. coli DNA): 0-2
- PCR products imaged after gel electrophoresis (band intensity) (E. coli DNA): often low and weak
- dilution decade at which PCR is achieved, on average (seeded E. coli DNA; 100 mM PIR, soil extracts (Los Alamos Airport Soil)): 1.0
- PCR products following gel electrophoresis (band intensity) (seeded E. coli DNA; PIR treated soil samples): typically weak

Compound: Bromothiazole [BRT]
- ε values [1, 15]: 1.99
- ε values [1, 16]: 2.45
- ε values [1, 17]: 2.18
- ε values [1, 18]: 1.36
- increase of PIR ability (HA reduction factor) on day 19 versus day zero ([1]; 1M BRT stored at room temperature, ambient lighting): ~3 factor
- increase of PIR ability (HA reduction factor) on day 19 ([1]; 1M BRT stored at room temperature, kept in the dark): greater than 2 factor
- Average Efficiency, ε [1]: 2.21
- Avg Reduction Factor [1]: 199
- Decade of dilution (E. coli DNA; [15]): 0
- Decade of dilution (E. coli DNA; [16]): 0
- Decade of dilution (E. coli DNA; [17]): 0
- Decade of dilution (E. coli DNA; [18]): 0
- Typical dilution decade for PCR (E. coli DNA): 0
- range of dilutions (dilution decade for PCR) (E. coli DNA): 0-3
- PCR products imaged after gel electrophoresis (band intensity) (E. coli DNA): weak

Compound: Nc1ccc(C(=O)C[n+]2ccsc2)cc1.[Br-] [PTB-A, 4-Amine-Phenacyl Thiazolium Bromide]
- performance as PIR compound (in words) [1]: did not perform well; also recorded: poor performance
